From patent US20160296722A1, “METHOD OF TREATING DEPRESSION” (Korea Bio Medical Science Institute, priority 2015, published 2016)

How the values were obtained:
pERK = assay: ERK phosphorylation in brain, Western blot; type: in vivo, mice; conditions: mouse brain after FST, 10 mg/kg orally once daily for 3 weeks, p<0.05
Procedure: (§1) Immediately after the FST, mice were sacrificed, brains were rapidly removed, and frozen in liquid nitrogen. Samples were dissected and homogenized in ice-cold buffer supplemented with 0.2 mM DTT, 0.5 mM sodium vanadate, and protease inhibitors. NaCl was then added to a final concentration of 0.45 M, and homogenates were centrifuged at 15,000×g for 30 min. Supernatants were collected and stored at −70° C. Samples were subjected to Western blot analysis for ERK, phosphorylated-ERK (PERK), BDNF, and GAPDH. Supernatant samples obtained as described above were heated at 95° C. for 5min and briefly cooled on ice. After centrifugation, 50 μg aliquots were resolved by 12% SDS-polyacrylamide gel electrophoresis. Proteins were then transferred to nitrocellulose membranes, which were blocked for 2 h with phosphate-buffered saline (PBS) containing Tween-20 (PBST) containing 6% bovine serum albumin. Membranes were incubated overnight at 4° C. with primary antibodies diluted 1:500 with PBST, and washed nine times for 10 min with PBST. For protein detection, blots were incubated with secondary antibodies conjugated peroxidase (1:5000) for 2 h. Finally, protein bands were visualized using an enhanced chemiluminescence kit (GE Healthcare, Piscataway, N.J., USA) according to the manufacturer's instructions.

BDNF = BDNF expression in brain, Western blot; type: in vivo, mice; conditions: mouse brain after FST, 10 mg/kg orally once daily for 3 weeks, versus untreated control group
Procedure: as §1

DA = DA level in brain after FST (DA ELISA kit); type: in vivo, mice; conditions: mouse brain after FST, 10 mg/kg orally once daily for 3 weeks, versus untreated control group, p<0.05
Procedure: Supernatants were collected and stored at −70° C.

ICR mice = assay: Forced swimming test (FST), immobility time; type: in vivo; conditions: male ICR mice, mean±SEM
Procedure: Male ICR mice (3 weeks old) weighing 10-12 g were purchased from the Dae-Han Experimental Animal Center (Daejeon, Republic of Korea), and subsequently maintained at the College of Korean Medicine, Kyung Hee University. Animals were housed 5-10% in as laminar air-flow room maintained at a temperature of 22±1° C. and a relative humidity of 55±10% under a 12:12 L/D cycle light (on at 7:00 h) throughout the study. Food and water were provided ad libitum. All manipulations were carried out between 9:00 and 16:00 h and no animal was used more than once.
Mice were exposed to JDS music daily for 3 weeks. All experiments were carried out in a quite environment other sounds.
After measuring immobility times, 10 mice were allocated to each of the five study groups in an immobility time-matched manner. […] The FST was performed as the end of the 3 weeks administration period. During the 6 min FST, immobility times were measured as described by Porsolt et al. (1977). The FST apparatus consisted of two Plexiglas cylinders (height: 25 cm, diameter: 10 cm) placed side by side in a Makrolon cage filled with water at 23-25° C. […] Total duration of immobility, during the 4 min period from 2 to 6 min was recorded. […]

CNCCC(Oc1ccc(C(F)(F)F)cc1)c1ccccc1 (centres unmarked) [fluoxetine, Fluoxetine]
pERK level (pERK): significantly elevated pERK levels
BDNF level (BDNF): significantly increased BDNF levels
DA level in brain (DA): significantly higher than in the untreated control group
Mean immobility time after the 3-week treatment period (ICR mice; 10 mg/kg orally once daily for 3 weeks, untreated control 199.3±11.8 s, p<0.05): 60.4 ± 14.3 s
Mean baseline immobility time (ICR mice; baseline (0 day), before treatment): 94.2 ± 23.9 s
